Assay results: US20220119354A1, “DIAMINO-SUBSTITUTED PYRIDINES AND PYRIMIDINES AS HERBICIDES” (FMC Corporation, priority 2019, published 2022)

Assays:
Format in all cases: in vivo
[1] = test system: barnyardgrass (Echinochloa crus-galli); assay: Test A preemergence, barnyardgrass; conditions: 0 to 100 scale, 0 is no effect, 100 is complete control
Excerpt: (§1) Seeds of plant species selected from barnyardgrass (Echinochloa crus-galli), kochia (Kochia scoparia), ragweed (common ragweed, Ambrosia elatior), ryegrass, Italian (Lolium multiflorum), foxtail, giant (Setaria faberii), foxtail, green (Setaria viridis), and pigweed (Amaranthus retroflexus) were planted into a blend of loam soil and sand and treated preemergence with a directed soil spray using test chemicals formulated in a non-phytotoxic solvent mixture which included a surfactant.
(§2) At the same time, plants selected from these weed species and also wheat (Triticum aestivum), corn (Zea mays), blackgrass (Alopecurus myosuroides), and galium (catchweed bedstraw, Galium aparine) were planted in pots containing the same blend of loam soil and sand and treated with postemergence applications of test chemicals formulated in the same manner. Plants ranged in height from 2 to 10 cm and were in the one- to two-leaf stage for the postemergence treatment. Treated plants and untreated controls were maintained in a greenhouse for approximately 10 d, after which time all treated plants were compared to untreated controls and visually evaluated for injury. Plant response ratings, summarized in Table A, are based on a 0 to 100 scale where 0 is no effect and 100 is complete control. A dash (-) response means no test result.

kochia (Kochia scoparia) [2] = assay: Test A preemergence, kochia; conditions: 0 to 100 scale, 0 is no effect, 100 is complete control
Excerpt: as §1, §2

[3] = test system: ragweed (common ragweed, Ambrosia elatior); assay: Test A preemergence, ragweed; conditions: 0 to 100 scale, 0 is no effect, 100 is complete control
Excerpt: as §1, §2

[4] = test system: ryegrass, Italian (Lolium multiflorum); assay: Test A preemergence, Italian ryegrass; conditions: 0 to 100 scale, 0 is no effect, 100 is complete control
Excerpt: as §1, §2

[5] = test system: foxtail, giant (Setaria faberii); assay: Test A preemergence, giant foxtail; conditions: 0 to 100 scale, 0 is no effect, 100 is complete control
Excerpt: as §1, §2

[6] = test system: pigweed (Amaranthus retroflexus); assay: Test A preemergence, pigweed; conditions: 0 to 100 scale, 0 is no effect, 100 is complete control
Excerpt: as §1, §2

[7] = test system: barnyardgrass (Echinochloa crus-galli); assay: Test A postemergence, barnyardgrass; conditions: 0 to 100 scale
Excerpt: as §1, §2

kochia (Kochia scoparia) [8] = assay: Test A postemergence, kochia; conditions: 0 to 100 scale
Excerpt: as §1, §2

[9] = test system: ragweed (common ragweed, Ambrosia elatior); assay: Test A postemergence, ragweed; conditions: 0 to 100 scale
Excerpt: as §1, §2

[10] = test system: ryegrass, Italian (Lolium multiflorum); assay: Test A postemergence, Italian ryegrass; conditions: 0 to 100 scale
Excerpt: as §1, §2

[11] = test system: foxtail, giant (Setaria faberii); assay: Test A postemergence, giant foxtail; conditions: 0 to 100 scale
Excerpt: as §1, §2

[12] = test system: pigweed (Amaranthus retroflexus); assay: Test A postemergence, pigweed; conditions: 0 to 100 scale
Excerpt: as §1, §2

[13] = test system: wheat (Triticum aestivum); assay: Test A postemergence, wheat; conditions: 0 to 100 scale
Excerpt: as §1, §2

[14] = test system: blackgrass (Alopecurus myosuroides); assay: Test A postemergence, blackgrass; conditions: 0 to 100 scale
Excerpt: as §1, §2

[15] = test system: galium (catchweed bedstraw, Galium aparine); assay: Test A postemergence, galium; conditions: 0 to 100 scale
Excerpt: as §1, §2

rice (Oryza sativa) = assay: Test B flooded paddy test, rice; conditions: Flood, 250 g ai/ha, applied to paddy water, 2-leaf stage, visual evaluation after 13 to 15 d
Method: (§3) Plant species in the flooded paddy test selected from rice (Oryza sativa), sedge, umbrella (small-flower umbrella sedge, Cyperus difformis), ducksalad (Heteranthera limosa), and barnyardgrass (Echinochloa crus-galli) were grown to the 2-leaf stage for testing. At the time of treatment, test pots were flooded to 3 cm above the soil surface, treated by application of test compounds directly to the paddy water, and then maintained at that water depth for the duration of the test. Treated plants and controls were maintained in a greenhouse for 13 to 15 d, after which time all species were compared to controls and visually evaluated. Plant response ratings, summarized in Table B, are based on a scale of 0 to 100 where 0 is no effect and 100 is complete control. A dash (-) response means no test result.

[16] = test system: sedge, umbrella (small-flower umbrella sedge, Cyperus difformis); assay: Test B flooded paddy test, umbrella sedge; conditions: Flood, 250 g ai/ha, applied to paddy water, 2-leaf stage, visual evaluation after 13 to 15 d
Method: as §3

[17] = test system: ducksalad (Heteranthera limosa); assay: Test B flooded paddy test, ducksalad; conditions: Flood, 250 g ai/ha, applied to paddy water, 2-leaf stage, visual evaluation after 13 to 15 d
Method: as §3

[18] = test system: barnyardgrass (Echinochloa crus-galli); assay: Test B flooded paddy test, barnyardgrass; conditions: Flood, 250 g ai/ha, applied to paddy water, 2-leaf stage, visual evaluation after 13 to 15 d
Method: as §3

corn (Zea mays) = assay: Test A postemergence, corn; conditions: 0 to 100 scale, 0 no effect, 100 complete control
Excerpt: as §1, §2

[19] = 500 g ai/ha, 0 is no effect, 100 is complete control
[20] = 125 g ai/ha, 0 no effect, 100 complete control
[21] = 500 g ai/ha, 0 no effect, 100 complete control
[22] = 31 g ai/ha, 0 no effect, 100 complete control

C[C@@H](Nc1ncc(C(F)(F)F)c(N)n1)c1coc2ccccc12 [Compound 52, N2-[(1R)-1-(3-benzofuranyl)ethyl]-5-(trifluoromethyl)-2,4-pyrimidinediamine]
80: Ryegrass, Italian plant response rating ([4]; 125 g ai/ha)
95%: pest or weed control at 250 g/ha ([16]; Cyperus difformis, 360 h, read-out: Plant response rating, Sedge, Umbrella (0 to 100 scale, 0 is no effect, 100 is complete control))
70: Barnyardgrass plant response rating ([1]; 125 g ai/ha)
90: Kochia plant response rating (kochia (Kochia scoparia) [2]; 125 g ai/ha) | Ryegrass, Italian plant response rating ([4]; 500 g ai/ha) | Foxtail, Giant plant response rating ([5]; 125 g ai/ha) | Barnyardgrass plant response rating [7, 19] | Kochia plant response rating (kochia (Kochia scoparia) [8]; [19]) | Foxtail, Giant plant response rating [11, 19] | Blackgrass plant response rating [14, 19] | Galium plant response rating [15, 19]
10%: plant injury at 250 g/ha (rice (Oryza sativa); Oryza sativa, 360 h, read-out: Plant response rating, Rice (0 to 100 scale, 0 is no effect, 100 is complete control))
30: Wheat plant response rating [13, 19]
80%: pest or weed control at 125 g/ha ([9]; Ambrosia artemisiifolia, post-emergence, 240 h, 125 g ai/ha, 0 no effect, 100 complete control, read-out: Plant response rating, Ragweed) | pest or weed control at 125 g/ha ([15]; Galium, post-emergence, 240 h, 125 g ai/ha, 0 no effect, 100 complete control, read-out: Plant response rating, Galium)
100: Barnyardgrass plant response rating ([1]; 500 g ai/ha) | Kochia plant response rating (kochia (Kochia scoparia) [2]; 500 g ai/ha) | Ragweed plant response rating ([3]; 125 g ai/ha) | Ragweed plant response rating ([3]; 500 g ai/ha) | Foxtail, Giant plant response rating ([5]; 500 g ai/ha) | Pigweed plant response rating ([6]; 125 g ai/ha) | Pigweed plant response rating ([6]; 500 g ai/ha) | Ragweed plant response rating [9, 19] | Ryegrass, Italian plant response rating [10, 19] | Pigweed plant response rating [12, 19]
40%: pest or weed control at 125 g/ha ([11]; Setaria faberi, post-emergence, 240 h, 125 g ai/ha, 0 no effect, 100 complete control, read-out: Plant response rating, Foxtail, Giant)
0%: plant injury at 125 g/ha ([13]; Triticum aestivum, post-emergence, 240 h, 125 g ai/ha, 0 no effect, 100 complete control, read-out: Plant response rating, Wheat)
100%: pest or weed control at 125 g/ha ([12]; Amaranthus retroflexus, post-emergence, 240 h, 125 g ai/ha, 0 no effect, 100 complete control, read-out: Plant response rating, Pigweed) | pest or weed control at 250 g/ha ([17]; Heteranthera limosa, 360 h, read-out: Plant response rating, Ducksalad (0 to 100 scale, 0 is no effect, 100 is complete control))
60%: pest or weed control at 125 g/ha ([10]; Lolium multiflorum, post-emergence, 240 h, 125 g ai/ha, 0 no effect, 100 complete control, read-out: Plant response rating, Ryegrass, Italian)
30%: pest or weed control at 125 g/ha ([7]; Echinochloa crus-galli, post-emergence, 240 h, 125 g ai/ha, 0 no effect, 100 complete control, read-out: Plant response rating, Barnyardgrass)
90%: pest or weed control at 125 g/ha (kochia (Kochia scoparia) [8]; Bassia scoparia, post-emergence, 240 h, 125 g ai/ha, 0 no effect, 100 complete control, read-out: Plant response rating, Kochia) | pest or weed control at 250 g/ha ([18]; Echinochloa crus-galli, 360 h, read-out: Plant response rating, Barnyardgrass (0 to 100 scale, 0 is no effect, 100 is complete control))
50%: pest or weed control at 125 g/ha ([14]; Alopecurus myosuroides, post-emergence, 240 h, 125 g ai/ha, 0 no effect, 100 complete control, read-out: Plant response rating, Blackgrass)

Cc1ccc2c([C@@H](Nc3ncc(C(F)(F)F)c(N)n3)C3CC3)coc2c1 [Compound 91]
0: Barnyardgrass plant response rating ([1]; 125 g ai/ha) | Barnyardgrass plant response rating ([1]; 500 g ai/ha) | Kochia plant response rating (kochia (Kochia scoparia) [2]; 125 g ai/ha) | Kochia plant response rating (kochia (Kochia scoparia) [2]; 500 g ai/ha) | Ragweed plant response rating ([3]; 125 g ai/ha) | Ragweed plant response rating ([3]; 500 g ai/ha) | Ryegrass, Italian plant response rating ([4]; 125 g ai/ha) | Foxtail, Giant plant response rating ([5]; 125 g ai/ha) | Foxtail, Giant plant response rating ([5]; 500 g ai/ha) | Pigweed plant response rating ([6]; 125 g ai/ha) | Pigweed plant response rating ([6]; 500 g ai/ha) | Plant response rating, Kochia (kochia (Kochia scoparia) [8]; [20]) | Plant response rating, Kochia (kochia (Kochia scoparia) [8]; [21]) | Plant response rating, Ragweed [9, 20] | Plant response rating, Ragweed [9, 21] | Plant response rating, Ryegrass, Italian [10, 20] | Plant response rating, Ryegrass, Italian [10, 21] | Plant response rating, Foxtail, Giant [11, 20] | Plant response rating, Foxtail, Giant [11, 21] | Plant response rating, Pigweed [12, 20] | Plant response rating, Pigweed [12, 21] | Plant response rating, Wheat [13, 20] | Plant response rating, Wheat [13, 21] | Plant response rating, Corn (corn (Zea mays); 125 g ai/ha) | Plant response rating, Corn (corn (Zea mays); 500 g ai/ha) | Plant response rating, Blackgrass [14, 20] | Plant response rating, Blackgrass [14, 21] | Plant response rating, Galium [15, 20] | Plant response rating, Galium [15, 21] | Plant response rating, Rice (0 to 100 scale, 0 is no effect, 100 is complete control) (rice (Oryza sativa)) | Plant response rating, Sedge, Umbrella (0 to 100 scale, 0 is no effect, 100 is complete control) [16] | Plant response rating, Ducksalad (0 to 100 scale, 0 is no effect, 100 is complete control) [17] | Plant response rating, Barnyardgrass (0 to 100 scale, 0 is no effect, 100 is complete control) [18]
30: Ryegrass, Italian plant response rating ([4]; 500 g ai/ha)

C[C@@H](Nc1ncc(C(F)(F)F)c(N)n1)c1cc2ccccc2[s+]1[O-] (stereo partly drawn) [Compound 113]
20: Kochia plant response rating (kochia (Kochia scoparia) [2]; 31 g ai/ha) | Ragweed plant response rating ([3]; 125 g ai/ha) | Plant response rating, Corn (corn (Zea mays); 31 g ai/ha)
70: Plant response rating, Kochia (kochia (Kochia scoparia) [8]; [20]) | Plant response rating, Galium [15, 20]
80: Kochia plant response rating (kochia (Kochia scoparia) [2]; 125 g ai/ha)
100: Plant response rating, Pigweed [12, 20]
30: Ryegrass, Italian plant response rating ([4]; 125 g ai/ha) | Plant response rating, Kochia (kochia (Kochia scoparia) [8]; [22])
0: Barnyardgrass plant response rating ([1]; 31 g ai/ha) | Barnyardgrass plant response rating ([1]; 125 g ai/ha) | Ragweed plant response rating ([3]; 31 g ai/ha) | Ryegrass, Italian plant response rating ([4]; 31 g ai/ha) | Foxtail, Giant plant response rating ([5]; 31 g ai/ha) | Plant response rating, Barnyardgrass [7, 22] | Plant response rating, Barnyardgrass [7, 20] | Plant response rating, Ragweed [9, 22] | Plant response rating, Ryegrass, Italian [10, 22] | Plant response rating, Ryegrass, Italian [10, 20] | Plant response rating, Foxtail, Giant [11, 22] | Plant response rating, Foxtail, Giant [11, 20] | Plant response rating, Wheat [13, 22] | Plant response rating, Wheat [13, 20] | Plant response rating, Corn (corn (Zea mays); 125 g ai/ha) | Plant response rating, Blackgrass [14, 22] | Plant response rating, Blackgrass [14, 20] | Plant response rating, Rice (0 to 100 scale, 0 is no effect, 100 is complete control) (rice (Oryza sativa)) | Plant response rating, Sedge, Umbrella (0 to 100 scale, 0 is no effect, 100 is complete control) [16] | Plant response rating, Ducksalad (0 to 100 scale, 0 is no effect, 100 is complete control) [17] | Plant response rating, Barnyardgrass (0 to 100 scale, 0 is no effect, 100 is complete control) [18]
40: Plant response rating, Ragweed [9, 20] | Plant response rating, Pigweed [12, 22] | Plant response rating, Galium [15, 22]
10: Foxtail, Giant plant response rating ([5]; 125 g ai/ha)
